The text below walks through data of US20260285888A1, “HETEROCYCLIC COMPOUND AND USE THEREOF” (OTSUKA PHARMACEUTICAL CO., LTD., priority 2023, published 2026).

Structures are written as SMILES.

The data set can be described thus: Study for confirmation of conversion to brexpiprazole in a buffer (stability of the evaluation compounds). The class given is physicochemical. The note with it: for Concentration of brexpiprazole formed / Concentration of evaluation compound decreased: in buffer, average of duplicate; for Concentration of brexpiprazole formed: 60-minute reaction sample; for Concentration of evaluation compound decreased: decrease in 60-minute vs 0-minute reaction sample. How it is done:
The conversion from the evaluation compounds to brexpiprazole in a buffer (i.e., the stability of the evaluation compounds) was evaluated.
The Example 1 compound was dissolved in acetonitrile/water (1:1, v/v) to 10 mmol/L and further diluted with acetonitrile/water (1:1, v/v) to 100 μmol/L for use.
The other Example compounds and the Reference Example 5 compound to Reference Example 7 compound were each dissolved in DMSO to 10 mmol/L and further diluted with acetonitrile to 100 μmol/L for use, except for the following compounds.
The compounds of Examples 52, 95, 96, 117, and 130 (EX 52, EX 95, EX 96, EX 117, and EX 130) were dissolved in acetonitrile/water (8:2, v/v) to 10 mmol/L and further diluted with acetonitrile to 100 μmol/L for use.
The compound of Example 97 (EX 97) was dissolved in acetonitrile/water (8:2, v/v) to 10 mmol/L and further diluted with acetonitrile/water (8:2, v/v) to 100 μmol/L for use.
The compounds of Examples 15 and 116 (EX 15 and EX 116) were dissolved in DMSO to 1 mmol/L and further diluted with acetonitrile to 100 μmol/L for use.
The reaction was conducted by preparing each reaction solution such that the final concentration of each component was as follows. The test was conducted in duplicate.
For the compounds of Examples 1 to 8, 10 to 19, 26 to 27, 37, 50, 87 to 89, 91, 116, 121, 123, 150, and 151 (EX 1 to EX 8, EX 10 to EX 19, EX 26 to EX 27, EX 37, EX 50, EX 87 to EX 89, EX 91, EX 116, EX 121, EX 123, EX 150, and EX 151), and the compounds of Reference Examples 5 to 7 (REX 5 to REX 7), the reaction solution without the evaluation compound (198 μl) was pre-incubated at 37° C. for 3 minutes, and then each of the evaluation compound solutions (2 μl) was added and stirred; thereafter, the reaction was started at 37° C. At 0 minutes or 60 minutes after the start of the reaction, the reaction was stopped by adding and stirring a reaction stop solution (1000 μl) composed of acetonitrile/isopropanol (4:1, v/v) containing internal standard substances. However, the 0-minute reaction sample (198 μl) was prepared by adding the evaluation compound (2 μl) after adding the reaction stop solution (1000 μl). The samples after stopping the reaction were used as the measurement samples. Calibration curve samples with the same composition were prepared (final concentrations of the evaluation compounds and brexpiprazole: 0.01, 0.1, and 1 μmol/L, with the proviso that for the evaluation compounds only, the 0-minute reaction samples were also used as calibration curve samples for 1 μmol/L).
For the compounds of Examples 24 to 25, 28 to 29, 32 to 36, 40 to 49, 51 to 60, 62 to 64, 66 to 77, 80 to 86, 90, 92 to 111, 113, 115, 117 to 120, 122, 124 to 130, 132 to 147, and 152 to 160 (EX 24 to EX 25, EX 28 to EX 29, EX 32 to EX 36, EX 40 to EX 49, EX 51 to EX 60, EX 62 to EX 64, EX 66 to EX 77, EX 80 to EX 86, EX 90, EX 92 to EX 111, EX 113, EX 115, EX 117 to EX 120, EX 122, EX 124 to EX 130, EX 132 to EX 147, and EX 152 to EX 160), the reaction solution without the evaluation compound (148.5 μl) was pre-incubated at 37° C. for 3 minutes, and then each of the evaluation compound solutions (1.5 μl) was added and stirred; thereafter, the reaction was started at 37° C. At 0 minutes or 60 minutes after the start of the reaction, the reaction was stopped by adding and stirring a reaction stop solution (600 μl) composed of acetonitrile/isopropanol (4:1, v/v) containing internal standard substances. However, the 0-minute reaction sample (148.5 μl) was prepared by adding the evaluation compound (1.5 μl) after adding the reaction stop solution (600 μl). The samples after stopping the reaction were used as the measurement samples. Calibration curve samples with the same composition were prepared (final concentrations of the evaluation compounds and brexpiprazole: 0.01, 0.1, and 1 μmol/L, with the proviso that for the evaluation compounds only, the 0-minute reaction samples were also used as calibration curve samples for 1 μmol/L). […]

`CC(C)NC(=O)CCCC(=O)OCOP(=O)([O-])OC[N+]1(CCCCOc2ccc3ccc(=O)[nH]c3c2)CCN(c2cccc3sccc23)CC1` [EX 73, (4-(benzo[b]thiophen-4-yl)-1-(4-((2-oxo-1,2-dihydroquinolin-7-yl)oxy)butyl)piperazin-1-ium-1-yl)methyl (((5-(isopropylamino)-5-oxopentanoyl)oxy)methyl) phosphate]: the “Concentration of brexpiprazole formed” value turned out to be 0 nM and the “Concentration of evaluation compound decreased” value was found to be 130 nM.

On to `CCOCCOC(=O)[C@@H](C)OP(=O)([O-])OC[N+]1(CCCCOc2ccc3ccc(=O)[nH]c3c2)CCN(c2cccc3sccc23)CC1` [EX 109, (R)-(4-(benzo[b]thiophen-4-yl)-1-(4-((2-oxo-1.2-dihydroquinolin-7-yl)oxy)butyl)piperazin-1-ium-1-yl)methyl (1-(2-ethoxyethoxy)-1-oxopropan-2-yl) phosphate], for which the “Concentration of brexpiprazole formed” value was found to be 0 nM and the “Concentration of evaluation compound decreased” value was -20 nM.

`COc1ccc(COC(=O)CC(C)(C)CC(=O)OCOP(=O)([O-])OC[N+]2(CCCCOc3ccc4ccc(=O)[nH]c4c3)CCN(c3cccc4sccc34)CC2)cc1` [EX 72, (4-(benzo[b]thiophen-4-yl)-1-(4-((2-oxo-1,2-dihydroquinolin-7-yl)oxy)butyl)piperazin-1-ium-1-yl)methyl (((5-((4-methoxybenzyl)oxy)-3,3-dimethyl-5-oxopentanoyl)oxy)methyl) phosphate]: the “Concentration of brexpiprazole formed” value was 0 nM and the “Concentration of evaluation compound decreased” value is 150 nM.

On to `CCCCCC(=O)OC[N+]1(CCCCOc2ccc3ccc(=O)[nH]c3c2)CCN(c2cccc3sccc23)CC1.[I-]` [REX 6, 4-(Benzo[b]thiophen-4-yl)-1-((hexanoyloxy)methyl)-1-(4-((2-oxo-1,2-dihydroquinolin-7-yl)oxy)butyl)piperazin-1-ium iodide, reference compound], for which the “Concentration of brexpiprazole formed” value came out at 210 nM and the “Concentration of evaluation compound decreased” value worked out at 220 nM.

In the case of `CCOC(=O)CCCC(=O)OCOP(=O)([O-])OC[N+]1(CCCCOc2ccc3ccc(=O)[nH]c3c2)CCN(c2cccc3sccc23)CC1` [EX 68, (4-(benzo[b]thiophen-4-yl)-1-(4-((2-oxo-1,2-dihydroquinolin-7-yl)oxy)butylpiperazin-1-ium-1-yl)methyl (((5-ethoxy-5-oxopentanoyl)oxy)methyl) phosphate], the “Concentration of brexpiprazole formed” value was found to be 0 nM and the “Concentration of evaluation compound decreased” value was determined as 90 nM.

On to `CCCCCCOC(=O)OC[N+]1(CCCCOc2ccc3ccc(=O)[nH]c3c2)CCN(c2cccc3sccc23)CC1` [Reference Example 7, reference compound], for which the “stability in the buffer / conversion to brexpiprazole (in words)” value (Tris-hydrochloric acid buffer pH 7.5, 37° C., 60 minutes, 1 μmol/L) was “clearly degraded to brexpiprazole”.

For `O=c1ccc2ccc(OCCCC[N+]3(COP(=O)([O-])OCC(F)F)CCN(c4cccc5sccc45)CC3)cc2[nH]1` [EX 115, (4-(benzo[b]thiophen-4-yl)-1-(4-(2-oxo-1,2-dihydroquinolin-7-yl)oxy)butyl)piperazin-1-ium-1-yl)methyl (2,2-difluoroethyl) phosphate], the “Concentration of brexpiprazole formed” value turned out to be 0 nM and the “Concentration of evaluation compound decreased” value came out at 50 nM.

With `CCCOP(=O)([O-])OC[N+]1(CCCCOc2ccc3ccc(=O)[nH]c3c2)CCN(c2cccc3sccc23)CC1` [EX 88, (4-(benzo[b]thiophen-4-yl)-1-(4-((2-oxo-1,2-dihydroquinolin-7-yl)oxy)butyl)piperazin-1-ium-1-yl)methyl propyl phosphate], the “Concentration of brexpiprazole formed” value stood at 0 nM and the “Concentration of evaluation compound decreased” value was -10 nM.

As for `COc1ccc(C(=O)OCCCCCCOP(=O)([O-])OC[N+]2(CCCCOc3ccc4ccc(=O)[nH]c4c3)CCN(c3cccc4sccc34)CC2)cc1` [EX 58, (4-(benzo[b]thiophen-4-yl)-1-(4-((2-oxo-1,2-dihydroquinolin-7-yl)oxy)butyl)piperazin-1-ium-1-yl)methyl (6-((4-methoxybenzoyl)oxy)hexyl) phosphate], the “Concentration of brexpiprazole formed” value is 0 nM and the “Concentration of evaluation compound decreased” value turned out to be 40 nM.

On to `CCCCCCOC(=O)OC[N+]1(CCCCOc2ccc3ccc(=O)[nH]c3c2)CCN(c2cccc3sccc23)CC1.[I-]` [REX 7, 4-(Benzo[b]thiophen-4-yl)-1-((((hexyloxy)carbonyl)oxy)methyl)-1-(4-((2-oxo-1,2-dihydroquinolin-7-yl)oxy)butyl)piperazin-1-ium iodide, reference compound], for which the “Concentration of brexpiprazole formed” value was 240 nM and the “Concentration of evaluation compound decreased” value came out at 270 nM.

`O=c1ccc2ccc(OCCCC[N+]3(COP(=O)([O-])OCCCO)CCN(c4cccc5sccc45)CC3)cc2[nH]1` [EX 6, (4-(benzo[b]thiophen-4-yl)-1-(4-((2-oxo-1,2-dihydroquinolin-7-yl)oxy)butyl)piperazin-1-ium-1-yl)methyl (3-hydroxypropyl) phosphate]: the “Concentration of brexpiprazole formed” value was 0 nM and the “Concentration of evaluation compound decreased” value was -110 nM.

With `CC(C)NC(=O)CCCCCCCCC(=O)OCOP(=O)([O-])OC[N+]1(CCCCOc2ccc3ccc(=O)[nH]c3c2)CCN(c2cccc3sccc23)CC1` [EX 76, (4-(benzo[b]thiophen-4-yl)-1-(4-((2-oxo-1,2-dihydroquinolin-7-yl)oxy)butyl)piperazin-1-ium-1-yl)methyl (((10-(isopropylamino)-10-oxodecanoyl)oxy)methyl) phosphate], the “Concentration of brexpiprazole formed” value turned out to be 0 nM and the “Concentration of evaluation compound decreased” value came out at 0 nM.

Regarding `CC(C)(C)C(=O)OCOP(=O)([O-])OC[N+]1(CCCCOc2ccc3ccc(=O)[nH]c3c2)CCN(c2cccc3sccc23)CC1` [EX 25, (4-(benzo[b]thiophen-4-yl)-1-(4-((2-oxo-1,2-dihydroquinolin-7-yl)oxy)butyl)piperazin-1-ium-1-yl)methyl ((pivaloyloxy)methyl) phosphate], the “Concentration of brexpiprazole formed” value was found to be 0 nM and the “Concentration of evaluation compound decreased” value is -10 nM.

With `CC(C)(C)OC(=O)CCCC(=O)OCOP(=O)([O-])OC[N+]1(CCCCOc2ccc3ccc(=O)[nH]c3c2)CCN(c2cccc3sccc23)CC1` [EX 69, (4-(benzo[b]thiophen-4-yl)-1-(4-((2-oxo-1,2-dihydroquinolin-7-yl)oxy)butyl)piperazin-1-ium-1-yl)methyl (((5-(tert-butoxy)-5-oxopentanoyl)oxy)methyl) phosphate], the “Concentration of brexpiprazole formed” value was 0 nM and the “Concentration of evaluation compound decreased” value was -10 nM.
